# What was measured:
# colorectal cancer cells [1] = assay: Oxidative stress (CellROX Deep Red); format: cell-based, human
# Procedure: (§1) Cancer cells (1 × 10^3) were cultured in 8-well collagen IV Ibidi chamber slides and treated with DMSO or NK-A 17E-233I (25 µM) for 24 h. The media was replaced with fresh media containing 100 nM MitoTracker Red dye to measure ΔΨm (1 mM stock; #M7512; Thermo Fisher Scientific) and 5 µM CellROX Deep Red Reagent to assess oxidative stress levels (2.5 mM stock; #C10422; Thermo Fisher Scientific) for 45 min. The cells were then fixed with 4% methanol-free PFA, washed with PBS, and mounted with Ibidi mounting medium containing 4',6-diamidino-2-phenylindole (DAPI) prior to imaging.
# (§2) The density of γ-H2AX, Rad51, ΔΨm, and oxidative stress in cancer cells was measured as described in [32], utilizing custom macros available as open access at Zenodo (https://zenodo.org/records/8387899) to obtain raw intensities and individual cell area.
# colorectal cancer cells [2] = assay: Flow cytometry-based cell cycle analysis; design: species or system human
# Procedure: Cancer cells (3 × 10^4) were cultured in 48-well plates and treated with DMSO or NK-A 17E-233I (25 µM) for 24 h. Following treatment, all wells were washed with PBS (#P4417; Sigma-Aldrich), and the cells were collected in Eppendorf tubes. The cells were harvested using 0.25% trypsin (#25200056; ThermoScientific) and 0.02% EDTA (1:1) (#17892; ThermoFisher Scientific) for 2 min, followed by the addition of DMEM. The tubes were then centrifuged at 500 × g for 5 min. The supernatant was discarded, and the pellets were fixed in 70% cold ethanol and stored at -20 °C for at least 1 h. The pellets were resuspended in 1 mL PBS and centrifuged at 500 × g at 4 °C for 5 min. The supernatant was discarded once again, and the pellets were subsequently reconstituted in a solution containing propidium iodide (PI; #25,535–16-4, Merck) and RNase (#N8080119, Applied Biosystems), followed by storage at 4 °C overnight. Cell cycle analysis was conducted using a CytoFLEX flow cytometer (Beckman Coulter; 405 nm laser). Cells were gated based on size and granularity on a forward scatter (FSC)/side scatter (SSC) plot, with cell debris excluded from the analysis. Mean fluorescence intensity from 1 × 10^4 cells was recorded. Data analysis was conducted using FlowJo software v10.8.1 (BD Life Sciences).
# colorectal cancer cells [3] = assay: Mitochondrial membrane potential (MitoTracker Red); format: cell-based, human
# Procedure: as §1, §2
# colorectal cancer cells [4] = assay: Live-cell imaging; format: cell-based, human; settings: 25 µM, 24 h time-lapse
# Procedure: Following staining, cells were treated with either DMSO or NK-A 17E-233I (25 µM) and subjected to time-lapse imaging for another 24 h, with an acquisition time of 1 h between frames. Cells were maintained at 37 °C with 5% CO2 and 95% humidity using Okolab chambers and monitored with a Leica DMi8 microscope equipped with a Leica DFC9000GT camera. Images were captured in brightfield and at 405 nm to visualize the nuclei using a 20X objective (HC PL FLUOTAR 20x/0.75). Images were processed using Leica Application Suite X (LAS X) Life Science Microscope Software (v3.5.5.19976, RRID:SCR_013673).
# colorectal cancer cells [5] = assay: RT-qPCR; format: cell-based, human; settings: 25 µM, 48 h
# Procedure: Cancer cells (0.8 × 10^6) were cultured in 60-mm Petri dishes and treated for 48 h with DMSO or NK-A 17E-233I (25 µM). The pellets were collected, and the total RNA was isolated using TRI Reagent Solution (#T9424; Sigma-Aldrich). The concentration and purity of RNA samples were assessed using a Nanodrop (Nanodrop ND-1000 spectrophotometer, Thermo Fisher) and stored at -80°C. Complementary DNA (cDNA) was generated using MultiScribe Reverse Transcriptase (#A25776; ThermoFisher Scientific), and the resulting cDNA was diluted and analyzed by qPCR using the StepOnePlus Real-Time PCR System (Applied Biosystems) with Power UP SYBR Green Master Mix (#A25741; ThermoFisher Scientific). β-actin was used as the endogenous control gene, and the fold change was calculated using the 2^−ΔΔCT method. Data processing was conducted using StepOnePlus Software for Windows, v2.3. All primer sequences were designed using the Primer 3 Plus software, validated by the Primer-BLAST tool, and submitted to Integrated DNA Technologies (IDT, Madrid, Spain). The primer sequences utilized in this study are listed below: […]
# [6] = different cancer cell lines (HT-29), 25 µM
smiles,measurement,setting,value
COc1cc(C)c(Oc2cc(C)cc(O)c2O)c(O)c1 [NK-A 17E-233I],ROS levels,"colorectal cancer cells [1]; HCT116, 25 µM, 24 h",significantly decreased
same,ROS levels,colorectal cancer cells [1]; [6],without significant effect
same,cell cycle distribution,colorectal cancer cells [2]; 25 µM,arrest of colorectal cancer cells in the S-phase and an increase in sub-G1 cell populations
same,cell cycle after washout,"colorectal cancer cells [2]; washout 12 h, NK-A 17E-233I 25 µM, HU 1 mM",remained arrested and/or underwent cell death
same,mitochondrial membrane potential (ΔΨm),"colorectal cancer cells [3]; HCT116, 25 µM, 24 h",significantly decreased
same,mitochondrial membrane potential (ΔΨm),colorectal cancer cells [3]; [6],decreased
same,progression through mitosis (G2/M),colorectal cancer cells [4],failed to progress through mitosis
same,mRNA expression levels of POLD1 and POLD2,colorectal cancer cells [5],reductions

# — publication PMC12534982 (Journal of Experimental & Clinical Cancer Research : CR, 2025)
